Measurements published in patent US10111435B2, “Herbicidal compositions containing N-(1,3,4-oxadiazol-2-yl)-aryl carboxylic acid amides” (BAYER CROPSCIENCE AKTIENGESELLSCHAFT, priority 2013, dated 2018).

What was measured:
Type in all cases: in vivo
[1] = test system: Poa annua (POAAN); test: greenhouse post-emergence herbicidal efficacy against POAAN
Experimental: (§1) All trials whose results are shown were conducted in a greenhouse by the methodology specified below. The effect of the inventive herbicidal compositions was examined on the following harmful plants 14 and 21 days after application:
(§2) Echinochloa crus-galli (ECHCG), Eleusine indica (ELEIN), Setaria viridis (SETVI), Amaranthus retroflexus (AMARE), Chenopodium album (CHEAL), Kochia scoparia (KCHSC), Solanum nigrum (SOLNI), Avena fatua (AVEFA), Bromus sterilis (BROST), Lolium multiflorum (LOLMU), Phalaris minor (PHAMI), Poa annua (POAAN), Galium aparine (GALAP), Matricaria inodora (MATIN) and Polygonum convolvulus (POLCO).
(§3) The harmful plant seeds were sown in pots (diameter 8 cm) with sandy loam soil and germinated under optimal conditions. The inventive herbicidal compositions or the active ingredients alone were applied post-emergence to the planted pots with a spray volume of 300 L/ha. The trial was conducted in a greenhouse under optimum growth conditions. The herbicidal effects were assessed visually by comparison of untreated and treated plants. The percentages mean: 0%=no effects, 100%=the plants die off completely).
(§4) The abbreviations mean: • a.i.=active ingredient • E^C=expected value according to Colby (E^C=A+B−A×B/100) • Diff: =difference (%) of measured value from expected value (%) (measured value minus expected value)
(§5) Assessment: • measured value E is greater than E^C:->synergism (+ diff.) • measured value E equals E^C:->additive effect • measured value E is smaller than E^C:->antagonism(− diff.)

[2] = test system: Polygonum convolvulus (POLCO); test: greenhouse post-emergence herbicidal efficacy against POLCO
Experimental: as §1, §2, §3, §4, §5

[3] = test system: Lolium multiflorum (LOLMU); test: greenhouse post-emergence herbicidal efficacy against LOLMU
Experimental: as §1, §2, §3, §4, §5

[4] = test system: Galium aparine (GALAP); test: greenhouse post-emergence herbicidal efficacy against GALAP
Experimental: as §1, §2, §3, §4, §5

[5] = test system: Phalaris minor (PHAMI); test: greenhouse post-emergence herbicidal efficacy against PHAMI
Experimental: as §1, §2, §3, §4, §5

[6] = test system: Avena fatua (AVEFA); test: greenhouse post-emergence herbicidal efficacy against AVEFA
Experimental: as §1, §2, §3, §4, §5

[7] = test system: Bromus sterilis (BROST); test: greenhouse post-emergence herbicidal efficacy against BROST
Experimental: as §1, §2, §3, §4, §5

[8] = test system: Matricaria inodora (MATIN); test: greenhouse post-emergence herbicidal efficacy against MATIN
Experimental: as §1, §2, §3, §4, §5

[9] = 14 days after application, g of a.i./ha: A1-57 12.5, aclonifen 200
[10] = 14 days after application, g of a.i./ha: A1-57 12.5, aclonifen 800
[11] = 14 days after application, g of a.i./ha: A1-57 50, aclonifen 200
[12] = 14 days after application, g of a.i./ha: A1-57 50, aclonifen 800
[13] = 21 days after application, g of a.i./ha: A1-57 12.5, aclonifen 800
[14] = 21 days after application, g of a.i./ha: A1-57 50, aclonifen 800
[15] = 21 days after application, g of a.i./ha: A1-57 12.5, aclonifen 200
[16] = 14 days after application, 20 g of a.i./ha
[17] = 21 days after application, g of a.i./ha: A2-1 12.5, fluroxypyr 20
[18] = 21 days after application, g of a.i./ha: A2-1 12.5, fluroxypyr 80
[19] = 21 days after application, g of a.i./ha: A2-1 50, fluroxypyr 20
[20] = 14 days after application, 80 g of a.i./ha
[21] = 21 days after application, g of a.i./ha: A2-1 50, fluroxypyr 80
[22] = 14 days after application, 320 g of a.i./ha
[23] = 21 days after application, g of a.i./ha: A1-36 10, flurtamone 80
[24] = 21 days after application, g of a.i./ha: A1-36 10, flurtamone 320
[25] = 21 days after application, g of a.i./ha: A1-36 2.5, flurtamone 80
[26] = 21 days after application, g of a.i./ha: A1-36 2.5, flurtamone 320

For `Nc1c([N+](=O)[O-])ccc(Oc2ccccc2)c1Cl` [aclonifen], the Efficacy [1, 9] was 0%, the Efficacy [1, 10] was 30% and the Efficacy [1, 11] was 0%. The Efficacy [1, 12] was 30%, the Efficacy [1, 13] was 10% and the Efficacy ([1]; 21 days after application, g of a.i./ha: A1-57 50, aclonifen 200) was 0%. For the same compound, the Efficacy [1, 14] was 10%, the Efficacy [2, 9] was 0% and the Efficacy [2, 10] was 10%. It also gave an Efficacy [2, 15] of 0%, an Efficacy [3, 10] of 0% and an Efficacy [3, 12] of 0%. For the same compound, the Efficacy [4, 9] was 20%, the Efficacy [4, 11] was 20% and the Efficacy [4, 14] was 20%. The Efficacy [5, 9] was 0%, the Efficacy [5, 10] was 40% and the Efficacy [5, 11] was 0%. For the same compound, the Efficacy [5, 15] was 0%, the Efficacy [5, 13] was 15% and the Efficacy ([6]; 14 days after application, 200 g of a.i./ha) was 0%. The Efficacy ([6]; 14 days after application, 800 g of a.i./ha) was 0%, the Efficacy [6, 9] was 0% and the Efficacy [6, 13] was 0%. The Efficacy [7, 9] was 0%, the Efficacy [7, 10] was 0% and the Efficacy [7, 12] was 0%. It also gave an Efficacy [7, 13] of 0%, an Efficacy [7, 14] of 0% and an Efficacy [8, 9] of 0%. It also gave an Efficacy [8, 10] of 0%, an Efficacy [8, 12] of 0% and an Efficacy [8, 14] of 0%.

`Nc1c(Cl)c(F)nc(OCC(=O)O)c1Cl` [fluroxypyr] showed an Efficacy [1, 16] of 0%, an Efficacy [1, 17] of 0% and an Efficacy [1, 18] of 10%. The Efficacy [2, 16] was 70%, the Efficacy [2, 17] was 80% and the Efficacy [2, 19] was 80%. The Efficacy [3, 20] was 0%, the Efficacy [3, 21] was 0% and the Efficacy [5, 20] was 15%. For the same compound, the Efficacy [5, 18] was 0%, the Efficacy [5, 21] was 0% and the Efficacy [6, 20] was 0%. The Efficacy [6, 18] was 0%, the Efficacy [6, 21] was 0% and the Efficacy [7, 20] was 0%. It also gave an Efficacy [7, 21] of 0%, an Efficacy [8, 17] of 20% and an Efficacy [8, 18] of 50%. For the same compound, the Efficacy [8, 19] was 20% and the Efficacy [8, 21] was 50%.

`CNC1=C(c2cccc(C(F)(F)F)c2)C(=O)C(c2ccccc2)O1` (centres unmarked) [flurtamone] showed an Efficacy [2, 20] of 50%, an Efficacy [2, 22] of 30% and an Efficacy [2, 23] of 0%. The Efficacy [2, 24] was 30%, the Efficacy [3, 20] was 30% and the Efficacy [3, 23] was 20%. It also gave an Efficacy [4, 20] of 40%, an Efficacy [4, 22] of 80% and an Efficacy [4, 25] of 0%. For the same compound, the Efficacy [4, 23] was 0%, the Efficacy [4, 24] was 70% and the Efficacy [5, 20] was 40%. For the same compound, the Efficacy [5, 22] was 50%, the Efficacy [5, 23] was 40% and the Efficacy [6, 20] was 0%. For the same compound, the Efficacy [6, 22] was 15%, the Efficacy [6, 25] was 0% and the Efficacy [6, 26] was 0%. It also gave an Efficacy [6, 23] of 0%, an Efficacy [6, 24] of 0% and an Efficacy [7, 20] of 0%. The Efficacy [7, 22] was 10%, the Efficacy [7, 25] was 0% and the Efficacy [7, 26] was 10%. The Efficacy [8, 20] was 50%, the Efficacy [8, 22] was 50% and the Efficacy [8, 25] was 25%. It also gave an Efficacy [8, 26] of 30%, an Efficacy [8, 23] of 25% and an Efficacy [8, 24] of 30%.
